Assay results as given in patent US10239925B2, “Peptides and combination of peptides for use in immunotherapy against ovarian cancer and other cancers” (IMMATICS BIOTECHNOLOGIES GMBH, priority 2015, dated 2019).

Assays:
CD8+ T cells = assay: In vitro immunogenicity: priming of CD8+ T cells with aAPCs loaded with peptide/MHC and anti-CD28, multimer readout; assay type: cell-based, human; details: for Wells positive [%]: HLA-A*02 restricted peptides, percentage of positive wells (among evaluable)
Experimental: In an aspect, the peptides are pre-screened for immunogenicity before being included in the warehouse. By way of example, and not limitation, the immunogenicity of the peptides included in the warehouse is determined by a method comprising in vitro T-cell priming through repeated stimulations of CD8+ T cells from healthy donors with artificial antigen presenting cells loaded with peptide/MHC complexes and anti-CD28 antibody.
FIGS. 3A to 3F show exemplary immunogenicity data: flow cytometry results after peptide-specific multimer staining. CD8+ T cells were primed using artificial APCs coated with anti-CD28 mAb and HLA-A*02 in complex with SeqID No 662 (FIG. 3A, left panel), SeqID No 663 (FIG. 3B, left panel), SeqID No 11 peptide (FIG. 3C, left panel), SeqID No 198 peptide (FIG. 3D, left panel), SeqID No 587 peptide (FIG. 3E, left panel) and SeqID No 427 peptide (FIG. 3F, left panel), respectively. After three cycles of stimulation, the detection of peptide-reactive cells was performed by 2D multimer staining with A*02/SeqID No 662 (FIG. 3A), A*02/SeqID No 663 (FIG. 3B), A*02/SeqID No 11 (FIG. 3C), A*02/SeqID No 198 (FIG. 3D), A*02/SeqID No 587 (FIG. 3E) or A*02/SeqID No 427 (FIG. 3F). Right panels (FIGS. 3A, 3B, 3C, 3D, 3E, and 3F) show control staining of cells stimulated with irrelevant A*02/peptide complexes. Viable singlet cells were gated for CD8+ lymphocytes. Boolean gates helped excluding false-positive events detected with multimers specific for different peptides. Frequencies of specific multimer+ cells among CD8+ lymphocytes are indicated.
In Vitro Immunogenicity for MHC Class I Presented Peptides
In order to obtain information regarding the immunogenicity of the TUMAPs of the present invention, the inventors performed investigations using an in vitro T-cell priming assay based on repeated stimulations of CD8+ T cells with artificial antigen presenting cells (aAPCs) loaded with peptide/MHC complexes and anti-CD28 antibody.
In Vitro Priming of CD8+ T Cells
In order to perform in vitro stimulations by artificial antigen presenting cells loaded with peptide-MHC complex (pMHC) and anti-CD28 antibody, the inventors first isolated CD8+ T cells from fresh HLA-A*02 leukapheresis products via positive selection using CD8 microbeads (Miltenyi Biotec, Bergisch-Gladbach, Germany) of healthy donors obtained from the University clinics Mannheim, Germany, after informed consent.
PBMCs and isolated CD8+ lymphocytes were incubated in T-cell medium (TCM) until use consisting of RPMI-Glutamax (Invitrogen, Karlsruhe, Germany) supplemented with 10% heat inactivated human AB serum (PAN-Biotech, Aidenbach, Germany), 100 U/ml Penicillin/100 μg/ml Streptomycin (Cambrex, Cologne, Germany), 1 mM sodium pyruvate (CC Pro, Oberdorla, Germany), 20 μg/ml Gentamycin (Cambrex). 2.5 ng/ml IL-7 (PromoCell, Heidelberg, Germany) and 10 U/ml IL-2 (Novartis Pharma, Nümberg, Germany) were also added to the TCM at this step.
Generation of pMHC/anti-CD28 coated beads, T-cell stimulations and readout was performed in a highly defined in vitro system using four different pMHC molecules per stimulation condition and 8 different pMHC molecules per readout condition.
The purified co-stimulatory mouse IgG2a anti human CD28 Ab 9.3 (Jung et al., 1987) was chemically biotinylated using Sulfo-N-hydroxysuccinimidobiotin as recommended by the manufacturer (Perbio, Bonn, Germany). Beads used were 5.6 μm diameter streptavidin coated polystyrene particles (Bangs Laboratories, Illinois, USA).
pMHC used for positive and negative control stimulations were A*0201/MLA-001 (peptide […] (SEQ ID NO. 664) from modified Melan-A/MART-1) and A*0201/DDX5-001 ([…] from DDX5, SEQ ID NO. 665), respectively.
800.000 beads/200 μl were coated in 96-well plates in the presence of 4×12.5 ng different biotin-pMHC, washed and 600 ng biotin anti-CD28 were added subsequently in a volume of 200 μl. […]

HLA-A*02:01 = HLA-A*02:01 (Homo sapiens, UniProt P04439, D140Y/D185E/D98H/E176V/E277Q/G131W/G231S/I119V/I121R/I166T/I218V/L300P/L318F/N151K/N90K/P208A/P217A/Q86G/Q94H/R138H/R169H/T345S); assay: MHC binding assay (UV-ligand exchange, anti-β2m ELISA, peptide exchange yield); details: binding to HLA-A*02:01
Method in brief: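 Peptide-MHC complexes formed by UV-ligand exchange, cleaving a UV-sensitive placeholder peptide in favour of the test peptide. Exchange yield measured by ELISA: monomers diluted 100-fold onto streptavidin-coated plates, 1 h 37 °C, detected with 2 ug/ml HRP anti-β2m and TMB, absorbance at 450 nm.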

Row | Substance | Wells positive [%] (CD8+ T cells) | Peptide exchange (MHC class I binding score, peptide exchange yield) (HLA-A*02:01) | donors (CD8+ T cells; percentage of positive donors) | wells (CD8+ T cells; percentage of positive wells)
1 | 141 (YLDFSNNRL; listed as Homo sapiens) [compound 141] | “+” (<20% = +) | “++” (>20% = ++) |  | 
2 | 61 (FLQGYQLHL; listed as Homo sapiens) [compound 61] | “++” (20% - 49% = ++) | “++++” (>75% = ++++) |  | 
3 | 152 (ILFEDIFDV; listed as Homo sapiens) [compound 152] | “++” (20% - 49% = ++) | “+++” (>50 = +++) |  | 
4 | 113 (GLLPTPLFGV; listed as Homo sapiens) [compound 113] | “+” (<20% = +) | “+++” (>50 = +++) |  | 
5 | 5 (HLTEVYPEL; listed as Homo sapiens) [compound 5] | “+++” (50% - 69% = +++) | “+++” (>50 = +++) |  | 
6 | 166 (YLNHLEPPV; listed as Homo sapiens) [compound 166] | “++++” (≥70% = ++++) | “+++” (>50 = +++) |  | 
7 | 2 (SLLEADPFL; listed as Homo sapiens) [compound 2] | “+” (<20% = +) | “+++” (>50 = +++) |  | 
8 | 199 (ALQDVPLSSV; listed as Homo sapiens) [compound 199] | “+” (<20% = +) | “+++” (>50 = +++) |  | 
9 | 283 (ALYIGDGYVIHLA; listed as Homo sapiens) [compound 283] |  | “+++” (>50 = +++) | +++ (50% - 69% = +++) | + (<20% = +)
10 | 198 (KTINKVPTV; listed as Homo sapiens) [compound 198] | “++” (20% - 49% = ++) | “+++” (>50 = +++) |  | 
11 | 191 (LLQEGQALEYV; listed as Homo sapiens) [compound 191] | “+++” (50% - 69% = +++) | “++” (>20% = ++) |  | 
12 | 108 (ALFPGVALLLA; listed as Homo sapiens) [compound 108] | “++” (20% - 49% = ++) | “++++” (>75% = ++++) |  | 
13 | 150 (RLWEEGEELEL; listed as Homo sapiens) [compound 150] | “+” (<20% = +) | “+++” (>50 = +++) |  | 
14 | 49 (YLPAVFEEV; listed as Homo sapiens) [compound 49] | “++” (20% - 49% = ++) | “+++” (>50 = +++) |  | 
15 | 247 (VLLPNDLLEKV; listed as Homo sapiens) [compound 247] | “+” (<20% = +) | “+++” (>50 = +++) |  | 
16 | 19 (FMVDNEAIYDI; listed as Homo sapiens) [compound 19] | “++” (20% - 49% = ++) | “++++” (>75% = ++++) |  | 
17 | 17 (GLLPGDRLVSV; listed as Homo sapiens) [compound 17] | “++” (20% - 49% = ++) | “+++” (>50 = +++) |  | 
18 | 499 (KIFDIDEAEEGV; listed as Homo sapiens) [compound 499] | “+” (<20% = +) | “++” (>20% = ++) |  | 
19 | 157 (SLNDEVPEV; listed as Homo sapiens) [compound 157] | “+++” (50% - 69% = +++) | “++” (>20% = ++) |  | 
20 | 242 (AIAYILQGV; listed as Homo sapiens) [compound 242] | “+++” (50% - 69% = +++) | “++” (>20% = ++) |  | 
21 | 8 (FTLGNVVGMYL; listed as Homo sapiens) [compound 8] | “+” (<20% = +) | “++++” (>75% = ++++) |  | 
22 | 443 (GLWEIENNPTV; listed as Homo sapiens) [compound 443] | “+” (<20% = +) | “+++” (>50 = +++) |  | 
